Reference: US20110150980A1, “CGRP ANALOG” (VasoGenix Pharmaceuticals, Inc., priority 2009, published 2011)
Bridges are numbered along the chain shown (N, C = ends). Where no end group is shown, it is not given here.

What was measured:
[1] = test system: non-sedated, non-naïve cynomolgus monkeys; assay: Intravenous infusion in non-sedated, telemeterized non-human primates: blood pressure, heart rate, ECG (Example 2); assay type: in vivo
Procedure: Peptides were synthesized as in Example 1. […] Two non-naïve, telemeterized, male non-human primates (NHP “a” and “b”) were used for the test article(s) dosing regimen. […] Following a stabilized baseline period of approximately 30 minutes, one of the test article(s) was administered as an intravenous infusion via a femoral vein vascular access port (VAP) using a Pegasus PCA infusion pump for a period of 30 or 60 minutes. A minimum period of 30 minutes was allotted for the hemodynamic parameters to return to baseline prior to the next test article infusion dose. The process was repeated for each of the stated test articles. The same procedure was followed for the 1 hour infusion with 1 hour allotted for parameters to return to base line.
The non-human primates were previously surgically prepared with telemetry transducers, type TL11M2-D70-PCT (Data Sciences International). The acquisition and analysis was done using a Ponemah (Version 4.8 or higher) data acquisition and analysis system installed on the hard drive of a computer. The computer was equipped with disk drive for file back up on readable write-once only optical media (CD-R or DVD-R).
Prior to the first dose administration, baseline data was acquired. For each subsequent dose, data was collected for approximately 30 min postdose. Prior to the next dose, the hemodynamic parameters were allowed to return to a stable baseline±10%.
Systolic blood pressure (SYS or SBP), diastolic blood pressure (DBP), mean arterial pressure (MAP), heart rate (HR), and all lead II ECG variables were recorded. The telemetry data files were transferred to an Excel (MicroSoft® Version 2003) spreadsheet. The following variables from the lead II ECG were measured: PR interval, QRS duration, QT interval, RR interval, and QTcF interval (calculated as
A visual inspection of the entire collected ECG waveform for disturbances in rhythm and waveform morphology was performed. The data for selected time points were analyzed and assessed on completion of data acquisition and were the average of at least 30 beats (ABP and ECG) of data at the selected analysis time, when possible. The time points for both hemodynamic and ECG data analysis were an initial 30 min baseline prior to the first dose, at a 10 min during each infusion postdose interval relative to end of each infusion, and time points prior to the next test article infusion for each test compound.
Non-human primates were selected because they have the same RAMP 1-CGRP receptor complex as humans.

[2] = test system: sedated Non Human Primate; assay: IV infusion in the sedated Non Human Primate: blood pressure and heart rate (Example 1); assay type: in vivo
[3] = target: T1, CRLR/RAMP1 receptor (Homo sapiens, UniProt O60894+Q16602); assay: CRE-luciferase assay in HEK293T cells transfected with CRLR and RAMP1; assay type: cell-based; conditions: compared to h-α-CGRP and h-β-CGRP as controls
T1 construct: All of the full-length cDNAs were subcloned into pcDNA3.1 expression vectors; expressed in transfected cells; host or cells: HEK293T, transient calcium phosphate transfection, pcDNA3.1 vectors
Text: The expression vectors for RAMP1, RAMP2, RAMP3, CRLR, CRE-Luc and SRE-Luc were constructed as previously described (McLatchie L. M., et al. (1998) Nature 393:333-339). Human CRLR, RAMP1, and RAMP2 full-length cDNAs were cloned by RT-PCR using RNA obtained from HEK293T cells and CRLR, RAMP1, and RAMP2-specific primers. Human RAMP3 full-length cDNAs were cloned by RT-PCR using RNA from human kidney and RAMP3 specific primers. All of the full-length cDNAs were subcloned into pcDNA3.1 expression vectors.
Human embryonic kidney 293T cells (HEK293T) were maintained in Dulbecco's modified Eagle's medium supplemented with 10% fetal calf serum, 2 mM glutamine, […], at 37° C. in a humidified atmosphere of 95% air and 5% CO2. Transient transfections were performed using calcium phosphate co-precipitation (Mellon P. L., et al. (1981) Cell 27:279-288). Cells in six-well plates or 100-mm Petri dishes were grown to 70% confluence and transfected with 0.1 μg of DNA for CRLR, 0.05 μg for RAMPs or 1 μg for CRE-Luc and SRE-Luc per cm^2. The total amount of DNA transfected in each condition was kept constant by adding empty pcDNA3.1 vector when needed. Twenty hours after transfection, the medium was replaced with fresh medium containing 5 mM sodium butyrate for 24 h and then replaced for an additional 24 h with fresh medium without sodium butyrate. All of the experiments were performed 72 h after transfection to allow correct glycosylation and cell surface targeting of CRLR and RAMPs.
After exposure to various concentrations of CGRP or the CGRP analogs, the cells were lysed and assayed for CRE- or SRE-luciferase activity using the luciferase assay system (Promega), and luminescence was measured using a 96-well luminometer.
The mechanism of action for CGRP at the CRLR/RAMP1 receptor is known to up-regulate cAMP through the gs pathway, and to a lesser extent [Ca^2+] through the gq pathway. […] It is the cAMP pathway that is the primary mechanism of action of CGRP for vasodilation, cardio/renoprotection and immunomodulation.

[4] = NHP a, dose day 2, during 30 minute infusions of 0.024 ug/kg/min
[5] = NHP a, dose day 3, during 30 minute infusions of 0.024 ug/kg/min
[6] = NHP a, dose day 3, during 1 hour infusion of 0.024 ug/kg/min
[7] = NHP b, dose day 2, during 30 minute infusions of 0.024 ug/kg/min
[8] = NHP b, dose day 3, during 30 minute infusions of 0.024 ug/kg/min
[9] = NHP b, dose day 3, during 1 hour infusion of 0.024 ug/kg/min
[10] = average of a 2, b 2, a 3, b 3, during 30 minute infusions of 0.024 ug/kg/min
[11] = average of a3, b3, during 1 hour infusion of 0.024 ug/kg/min

T1 sequence (Q16602 23-461): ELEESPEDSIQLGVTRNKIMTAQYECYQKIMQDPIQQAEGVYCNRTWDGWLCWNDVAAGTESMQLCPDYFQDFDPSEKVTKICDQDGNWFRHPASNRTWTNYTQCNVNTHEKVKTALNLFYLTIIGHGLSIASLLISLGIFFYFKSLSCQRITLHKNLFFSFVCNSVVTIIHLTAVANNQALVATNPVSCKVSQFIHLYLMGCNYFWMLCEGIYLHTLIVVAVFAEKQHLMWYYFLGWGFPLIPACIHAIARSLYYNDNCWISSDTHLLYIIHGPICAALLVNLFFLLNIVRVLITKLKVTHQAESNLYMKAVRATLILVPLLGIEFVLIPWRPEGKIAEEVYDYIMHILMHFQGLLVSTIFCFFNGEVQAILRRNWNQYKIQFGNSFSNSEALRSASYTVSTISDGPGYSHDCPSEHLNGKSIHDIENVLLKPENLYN
T1 sequence (O60894 27-148): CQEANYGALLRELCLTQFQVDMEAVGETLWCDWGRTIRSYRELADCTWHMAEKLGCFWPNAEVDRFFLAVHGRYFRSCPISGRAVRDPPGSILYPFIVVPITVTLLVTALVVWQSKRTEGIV

Cyc-ACNTATCVTHRLAGLLSRSGGVVKSNFVPTNVGSKAF-NH2 (disulfide 2-7 (inferred)) [Peptide V]
Percent change in HR, a 2 [1, 4]: −19.8%
Percent change in mean BP, a 2 [1, 4]: −20.0%
Percent change in systolic BP, a 2 [1, 4]: −16.2%
Percent change in HR, a 3 [1, 5]: −22.2%
Percent change in mean BP, a 3 [1, 5]: −8.8%
Percent change in systolic BP, a 3 [1, 5]: −6.8%
Percent change in HR at 30 minutes, a3 [1, 6]: −22.2%
Percent change in HR at 60 minutes, a3 1 hr [1, 6]: −5.8%
Percent change in mean systolic BP at 30 minutes, a3 [1, 6]: −8.8%
Percent change in mean systolic BP at 60 minutes, a3 1 hr [1, 6]: −5.3%
Percent change in systolic BP at 30 minutes, a3 [1, 6]: −6.8%
Percent change in systolic BP at 60 minutes, a3 1 hr [1, 6]: −5.8%
Percent change in HR, b 2 [1, 7]: −13.1%
Percent change in mean BP, b 2 [1, 7]: −28.6%
Percent change in systolic BP, b 2 [1, 7]: −27.2%
Percent change in HR, b 3 [1, 8]: −37.3%
Percent change in mean BP, b 3 [1, 8]: −26.4%
Percent change in systolic BP, b 3 [1, 8]: −23.9%
Percent change in HR at 30 minutes, b3 [1, 9]: −37.3%
Percent change in HR at 60 minutes, b3 1 hr [1, 9]: 14.5%
Percent change in mean systolic BP at 30 minutes, b3 [1, 9]: −26.4%
Percent change in mean systolic BP at 60 minutes, b3 1 hr [1, 9]: 2.4%
Percent change in systolic BP at 30 minutes, b3 [1, 9]: −23.9%
Percent change in systolic BP at 60 minutes, b3 1 hr [1, 9]: 2.8%
Percent change in mean HR, a 2 ([1]; Table 14, NHP a, dose day 2, during 30 minute infusions of 0.024 ug/kg/min): −19.8%
Percent change in mean HR, a 3 ([1]; Table 14, NHP a, dose day 3, during 30 minute infusions of 0.024 ug/kg/min): −22.2%
Percent change in mean HR, b 2 ([1]; Table 14, NHP b, dose day 2, during 30 minute infusions of 0.024 ug/kg/min): −13.1%
Percent change in mean HR, b 3 ([1]; Table 14, NHP b, dose day 3, during 30 minute infusions of 0.024 ug/kg/min): −37.3%
Percent change in mean HR, HR ([1]; Table 14, average of a 2, b 2, a 3, b 3, during 30 minute infusions of 0.024 ug/kg/min): −23.1%
Percent change in mean HR at 30 minutes, a3 ([1]; Table 24, NHP a, dose day 3, during 1 hour infusion of 0.024 ug/kg/min): −22.2%
Percent change in mean HR at 30 minutes, b3 ([1]; Table 24, NHP b, dose day 3, during 1 hour infusion of 0.024 ug/kg/min): −37.3%
Percent change in mean HR at 30 minutes, HR T30 ([1]; Table 24, average of a3, b3, during 1 hour infusion of 0.024 ug/kg/min): −29.8%
Percent change in mean HR at 60 minutes, a3 1 hr ([1]; Table 25, NHP a, dose day 3, during 1 hour infusion of 0.024 ug/kg/min): −5.8%
Percent change in mean HR at 60 minutes, b3 1 hr ([1]; Table 25, NHP b, dose day 3, during 1 hour infusion of 0.024 ug/kg/min): 14.5%
Percent change in mean HR at 60 minutes, HR T60 ([1]; Table 25, average of a3, b3, during 1 hour infusion of 0.024 ug/kg/min): 4.4%
Percent change in HR, HR [1, 10]: −23.1%
Percent change in mean BP, BP [1, 10]: −21.0%
Percent change in systolic BP, BP [1, 10]: −18.5%
Percent change in HR at 30 minutes, HR T30 [1, 11]: −29.8%
Percent change in HR at 60 minutes, HR T60 [1, 11]: 4.4%
Percent change in mean systolic BP at 30 minutes, BP T30 [1, 11]: −17.6%
Percent change in mean systolic BP at 60 minutes, BP T60 [1, 11]: −1.5%
Percent change in systolic BP at 30 minutes, T30 [1, 11]: −15.4%
Percent change in systolic BP at 60 minutes, T60 [1, 11]: −1.5%
reduction of BP and HR (Tables 8, 13 and 14, FIG. 11) ([1]; mean BP and HR, 30 minute infusions, 0.024 ug/kg/min): reduced both BP and HR to a greater extent than the positive control αCGRP
effect on heart rate ([1]; non-sedated cynomolgus monkeys, IV infusion): maintenance of pre-administration heart rate, and in some cases, reduction in heart rate
reduction of BP and HR (Tables 8-10, FIG. 10) ([1]; systolic BP and HR, 30 minute infusions, 0.024 ug/kg/min): reduced BP and HR to a greater extent than αCGRP and βCGRP
Heart rate effect ([2]; at any of the tested doses): no increase in heart rate
increase in heart rate (HR) compared to the control CGRP ([2]; sedated Non Human Primate, IV for 5 minutes at 29/ng/kg/min): reduced increase in heart rate
activity and potency in binding to the CGRP receptor, CRE-Luciferase assay [3]: as equally active and potent as h-α-CGRP and h-β-CGRP
